System: nitrification
Assay: Inhibition of nitrification in soil incubation test (ammonium and nitrate content after 14 days)
Conditions: 100 g soil, 10 mg ammonium sulfate-N, 20° C., 0 and 14 days; for NI* @ 1%: compound at 1% (of nitrogen N); for NI* @ 3%: compound at 3% (of nitrogen N); for NI* @ 0.3%: compound at 0.3% (of nitrogen N)
Description: The compounds of the invention have been tested as follows in terms of the inhibition of nitrification:
100 g soil is filled into 500 ml plastic bottles (e.g. soil sampled from the field) and is moistened to 50% water holding capacity. The soil is incubated at 20° C. for two weeks to activate the microbial biomass. 1 ml test solution, containing the compound in the appropriate concentration (usually 0.3 or 1% of nitrogen N), or DMSO and 10 mg nitrogen in the form of ammonium sulfate-N is added to the soil and everything mixed well. Bottles are capped but loosely to allow air exchange. The bottles are then incubated at 20° C. for 0 and 14 days.
For analysis, 300 ml of a 1% K2SO4-solution is added to the bottle containing the soil and shaken for 2 hours in a horizontal shaker at 150 rpm. Then the whole solution is filtered through a filter (Macherey-Nagel Filter MN 807%). Ammonium and nitrate content is then analyzed in the filtrate in an autoanalyzer at 550 nm (Merck, AA11).
The inhibition (NI @ a specified concentration) is calculated as follows: […]

S=C1NCCS1 [Cmpd. 1, 1,3-Thiazolidine-2-thione]
NI* @ 1%: 47 | NI* @ 3%: 83.5

COc1cccc(C(=O)N2CCSC2=S)c1 [Cmpd. 2, 3-(3-Methoxybenzoyl)-2-thiazolidinethione]
NI* @ 0.3%: 34.8 | NI* @ 1%: 73.1 | NI* @ 3%: 67.9

O=C(Cc1ccccc1)N1CCSC1=S [Cmpd. 3, 3-(Phenylacetyl)-2-thiazolidinethione]
NI* @ 0.3%: 26.6 | NI* @ 1%: 55.3 | NI* @ 3%: 71.1

CC(=O)N1CCSC1=S [Cmpd. 4, 3-Acetylthiazolidine-2-thione]
NI* @ 1%: 32.3 | NI* @ 3%: 68.7

O=C(c1ccc(Cl)cc1)N1CCSC1=S [Cmpd. 5, 3-(4-Chlorobenzoyl)-2-thiazolidinethione]
NI* @ 1%: 30.7 | NI* @ 3%: 67

CC1(C)CSC(=S)N1 [Cmpd. 6, 4,4-Dimethyl-2-thiazolidinethione]
NI* @ 3%: 57.5

COc1ccc(C(=O)N2CCSC2=S)cc1 [Cmpd. 7, 3-(4-Methoxybenzoyl)-2-thiazolidinethione]
NI* @ 0.3%: 19.8 | NI* @ 1%: 27.5 | NI* @ 3%: 57.4

COc1ccc(C(=O)N2CCSC2=S)cc1OC [Cmpd. 8, 3-(3,4-Dimethoxybenzoyl)-2-thiazolidinethione]
NI* @ 3%: 55

O=C(c1cccc(Br)c1)N1CCSC1=S [Cmpd. 9, 3-(3-Bromobenzoyl)-2-thiazolidinethione]
NI* @ 3%: 49

O=C(c1ccccc1)N1CCSC1=S [Cmpd. 10, 3-Benzoyl-2-thiazolidinethione]
NI* @ 3%: 48.4

CN1CCSC1=S [Cmpd. 11, 3-Methyl-2-thiazolidinethione]
NI* @ 3%: 39.9

Cc1c(C(=O)N2CCSC2=S)oc2ccccc12 [Cmpd. 12, 3-[(3-Methyl-2-benzofuranyl)carbonyl]-2-thiazolidinethione]
NI* @ 3%: 39

From patent US12151991B2, “Use of a substituted thiazolidine compound as nitrification inhibitor” (BASF SE, priority 2018, dated 2024)
